Measured values: ChEMBL document CHEMBL1144098, “Laxifloranone, a new phloroglucinol derivative from Marila laxiflora” (J Nat Prod, 1999)
≈ marks a conversion by molar mass, not a printed value. Calls of active or inactive are those of the source. The rule behind the calls is not given here.

How the values were obtained:
[1] = system: Human immunodeficiency virus 1; experiment: Antiviral activity against HIV1 in human CEM-SS cells assessed inhibition of virus-induced cytopathic effects; assay type: functional, organism-based
[2] = system: Human immunodeficiency virus 1; experiment: Antiviral activity against HIV1 in human CEM-SS cells assessed as cytoprotection against virus-induced cytopathogenicity; assay type: functional
[3] = Human immunodeficiency virus 1, CEM-SS

| Structure (SMILES) | EC50 [1, 3] [µg/mL] | IC50 [1, 3] [µg/mL] | Activity [2] | Activity [1] |
| --- | --- | --- | --- | --- |
| CC(C)=CC[C@@H]1C[C@@]2(CC=C(C)C)C(=O)C(C(=O)CC(C)C)=C(O)[C@]([C@H](CC(=O)O)c3ccccc3)(C2=O)C1(C)C [LAXIFLORANONE] | 0.62 (≈ 1.1 µM) | 6.6 (≈ 11.7 µM) | 80% |  |
| CCOC(=O)NN(OC(=O)C[C@H](c1ccccc1)[C@@]12C(=O)[C@@](CC=C(C)C)(C[C@@H](CC=C(C)C)C1(C)C)C(=O)C(C(=O)CC(C)C)=C2O)C(=O)OCC |  |  | inactive | inactive |
